Data on two molecules can be found in publication PMC10360057 (2023).

Assay [1] deals with RNA 2 (RNA, riboswitch) CCGGCAUAGCUUGUCCUUUAAUGGUCCUAUGUCGAAAAUG
The assay is described as follows: competitive native ESI MS. The settings on record: NH4+ 50 mM (ammonium bicarbonate); 9:1 H2O/CH3OH, 0.25 mM piperazine, pH ~7.5, 21 °C; RNA 1 as competing reference; overall, motifs A and B.

Assay [2] relates to RNA 1 (RNA, riboswitch) GGCUGCUUGUCCUUUAAUGGUCCAGUC
The assay is described as follows: native ESI MS. The settings on record: 9:1 H2O/CH3OH, 0.25 mM piperazine.

The test system of assay [3] is RNA 2 (RNA, riboswitch) CCGGCAUAGCUUGUCCUUUAAUGGUCCUAUGUCGAAAAUG
Put plainly: ITC. To be noted: K+ 100 mM (KCl), Mg2+ 2 mM (MgCl2); 50 mM MOPS, pH 7.5, 21 °C; two-site fit, site 1 of 2.

Assay [4] deals with RNA 3 (RNA, riboswitch) CCGUCAUAGCUUGUCCUUUAAUGGUCCUAUGACGAAAAUG
The assay is described as follows: competitive native ESI MS. To be noted: NH4+ 50 mM (ammonium bicarbonate); 9:1 H2O/CH3OH, 0.25 mM piperazine, pH ~7.5, 21 °C; RNA 1 as competing reference; overall, motifs A and B.

Assay [5] has as its system RNA 1 (RNA, riboswitch) GGCUGCUUGUCCUUUAAUGGUCCAGUC
The assay is described as follows: ITC. To be noted: K+ 100 mM (KCl), Mg2+ 2 mM (MgCl2); 50 mM MOPS, pH 7.5, 21 °C; two-site fit, site 1 of 2.

In assay [6] the test system is RNA 4 (RNA, riboswitch) CCCUGAUAGCUUGUCCUUUAAUGGUCCUAUCUGGAAAAUG
Put plainly: competitive native ESI MS. To be noted: NH4+ 50 mM (ammonium bicarbonate); 9:1 H2O/CH3OH, 0.25 mM piperazine, pH ~7.5, 21 °C; RNA 1 as competing reference; overall, motifs A and B.

SMILES strings stand for the structures.

In general, KD refers to the constant that tells how readily two partners part at equilibrium. Higher therefore signals a looser complex.

As for `NC[C@@H]1O[C@H](O[C@H]2[C@@H](O)[C@H](O[C@@H]3[C@@H](O)[C@H](N)C[C@H](N)[C@H]3O[C@H]3O[C@H](CN)[C@@H](O)[C@H](O)[C@H]3N)O[C@@H]2CO)[C@H](N)[C@@H](O)[C@@H]1O`, the KD was determined as 500 ± 200 nM in assay [1]; 700 ± 200 nM in assay [2] (NH4+ 50 mM (ammonium bicarbonate), pH 7.5, 21 °C, single-site model); 400 ± 600 nM in assay [3]; 500 ± 200 nM in assay [4]; 2 ± 2 nM in assay [5]; 500 ± 200 nM in assay [6].

In assay [2] (none added, pH ~6, room temperature, 1 μM RNA, 10 μM paromomycin), `NC[C@@H]1O[C@H](O[C@H]2[C@@H](O)[C@H](O[C@@H]3[C@@H](O)[C@H](N)C[C@H](N)[C@H]3O[C@H]3O[C@H](CO)[C@@H](O)[C@H](O)[C@H]3N)O[C@@H]2CO)[C@H](N)[C@@H](O)[C@@H]1O` gave a dissociation constant (KD) of 4600 ± 1400 nM.
